Assay results: ChEMBL document CHEMBL1201862, “PubChem BioAssay data set” (2004)
Calls of active or inactive are those of the source.

How the values were obtained:
[1] = target: Dual specificity protein kinase CLK1 (Homo sapiens, UniProt P49759); test: CLK1 kinase inhibitors, off-target check, dose response, selectivity assay for Dyrk1A inhibitor project, biochemical, cherry-picked samples (AID 588811)
[2] = target: Dual specificity tyrosine-phosphorylation-regulated kinase 1A (Rattus norvegicus, UniProt Q63470); type: biochemical, Homo sapiens
INS1 = test: beta cell apoptosis inhibitors, cytokine rescue, dose response, luminescence, retest (AID 449756); type: functional, cell-based; settings: Rattus norvegicus, INS1;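 further: cell death triggered by IL-1 beta plus TNF-alpha plus IFN-gamma mixture; protective hits raise ATP signal compared with cytokine alone wells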
[3] = insulin promoter down-regulators in MIN6 cells, imaging, high-content screening, mouse beta cells (AID 1628); type: functional
[4] = cytotoxicity in MIN6 insulinoma cells, dose response, cytotoxicity control, cell-based, mouse insulinoma (AID 2122); type: functional;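 further: confirmatory high-throughput counterscreen run to flag cytotoxic compounds; mouse MIN-6 beta cells carrying an insulin promoter eGFP reporter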
[5] = target: Eukaryotic translation initiation factor 4E (Mus musculus, UniProt P63073); test: eIF4E–eIF4G protein interaction inhibitors, dose response, biochemical, TR-FRET (AID 855); type: functional;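 further: potency for disrupting eIF4E binding to eIF4GI seen as loss of FRET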
Sequence of Eukaryotic translation initiation factor 4E (P63073 whole entry): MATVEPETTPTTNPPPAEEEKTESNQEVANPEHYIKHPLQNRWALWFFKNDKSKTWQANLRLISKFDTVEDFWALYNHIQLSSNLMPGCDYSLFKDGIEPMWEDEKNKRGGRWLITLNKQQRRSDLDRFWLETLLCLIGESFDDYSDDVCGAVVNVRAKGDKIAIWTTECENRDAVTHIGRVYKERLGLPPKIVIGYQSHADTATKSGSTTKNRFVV

Troponin, cardiac muscle = Troponin, cardiac muscle (Homo sapiens, UniProt P19429+P45379+P63316); test: Fluorescence-based biochemical high throughput dose response assay for activators of the calcium sensitivity of cardiac Regulated Thin Filaments (RTF). [Related pubchem assays (depositor defined):AID493008, AID493018, AID504382, AID504383]; type: protein-complex assay
Mu-type opioid receptor [6] = target: T1, Mu-type opioid receptor (Homo sapiens, UniProt P35372); test: MOR agonists by imaging, SAR follow-up, image-based (AID 2352); type: functional
T1 sequence (P35372 whole entry): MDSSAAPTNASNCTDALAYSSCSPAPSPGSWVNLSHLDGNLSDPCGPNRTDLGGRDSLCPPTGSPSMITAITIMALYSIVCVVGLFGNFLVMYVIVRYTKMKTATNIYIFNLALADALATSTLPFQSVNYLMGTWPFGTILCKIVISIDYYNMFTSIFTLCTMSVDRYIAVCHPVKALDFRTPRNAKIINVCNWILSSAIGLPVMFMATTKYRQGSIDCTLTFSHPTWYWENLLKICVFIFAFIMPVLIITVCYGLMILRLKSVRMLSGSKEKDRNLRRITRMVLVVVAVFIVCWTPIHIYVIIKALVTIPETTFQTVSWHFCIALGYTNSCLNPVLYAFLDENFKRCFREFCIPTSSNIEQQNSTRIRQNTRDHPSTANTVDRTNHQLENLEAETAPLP

[7] = target: T2, Kappa-type opioid receptor (Homo sapiens, UniProt P41145); test: kappa opioid receptor blockers, cell-based, luminescence, beta-arrestin, SAR follow-up (AID 2285); type: functional
T2 sequence (P41145 whole entry): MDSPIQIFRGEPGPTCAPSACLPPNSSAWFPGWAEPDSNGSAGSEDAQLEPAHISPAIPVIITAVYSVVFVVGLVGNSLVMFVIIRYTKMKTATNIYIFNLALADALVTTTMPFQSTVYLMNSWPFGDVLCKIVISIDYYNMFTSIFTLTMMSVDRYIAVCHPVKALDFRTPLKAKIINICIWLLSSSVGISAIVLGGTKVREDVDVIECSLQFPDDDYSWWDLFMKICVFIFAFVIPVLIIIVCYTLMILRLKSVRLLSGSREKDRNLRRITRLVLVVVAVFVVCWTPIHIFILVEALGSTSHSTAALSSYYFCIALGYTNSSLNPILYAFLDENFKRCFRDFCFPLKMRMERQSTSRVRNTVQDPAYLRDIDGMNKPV

[8] = target: T2, Kappa-type opioid receptor; test: KOR agonist analogs, imaging readout, SAR follow-up, image-based (AID 2359); type: functional
[9] = target: T3, Delta-type opioid receptor (Homo sapiens, UniProt P41143); test: DOR antagonists, SAR follow-up, image-based (AID 2357); type: functional
T3 sequence (P41143 whole entry): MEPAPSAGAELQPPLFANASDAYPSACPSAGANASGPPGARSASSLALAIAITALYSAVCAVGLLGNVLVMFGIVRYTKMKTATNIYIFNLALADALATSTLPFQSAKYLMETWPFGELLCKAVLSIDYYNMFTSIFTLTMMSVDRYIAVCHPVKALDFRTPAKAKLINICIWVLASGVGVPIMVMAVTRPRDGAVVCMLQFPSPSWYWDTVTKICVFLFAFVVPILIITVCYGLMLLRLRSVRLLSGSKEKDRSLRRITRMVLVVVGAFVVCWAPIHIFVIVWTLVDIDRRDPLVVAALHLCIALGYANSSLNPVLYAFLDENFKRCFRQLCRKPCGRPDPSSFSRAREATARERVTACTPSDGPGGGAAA

Mu-type opioid receptor [10] = target: T1, Mu-type opioid receptor; test: MOR antagonists, SAR follow-up, image-based (AID 2420); type: functional;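 further: compounds added before stimulation of receptor with agonist DAMGO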
[11] = target: T2, Kappa-type opioid receptor; test: KOR antagonists by imaging, SAR follow-up, image-based (AID 2348); type: functional
[12] = target: T3, Delta-type opioid receptor; test: DOR agonists, SAR follow-up, image-based (AID 2370); type: functional
SUMO E1/E2 = SUMO E1/E2 (Homo sapiens, UniProt P63279+Q9UBE0+Q9UBT2); test: SAR analysis of SUMOylation using HTRF in an in-Vitro dose response assay. [Related pubchem assays (depositor defined):AID2006, AID2011, AID2018, AID2069, AID2658]; type: functional
Sequence of SUMO E1/E2 (Q9UBE0 whole entry): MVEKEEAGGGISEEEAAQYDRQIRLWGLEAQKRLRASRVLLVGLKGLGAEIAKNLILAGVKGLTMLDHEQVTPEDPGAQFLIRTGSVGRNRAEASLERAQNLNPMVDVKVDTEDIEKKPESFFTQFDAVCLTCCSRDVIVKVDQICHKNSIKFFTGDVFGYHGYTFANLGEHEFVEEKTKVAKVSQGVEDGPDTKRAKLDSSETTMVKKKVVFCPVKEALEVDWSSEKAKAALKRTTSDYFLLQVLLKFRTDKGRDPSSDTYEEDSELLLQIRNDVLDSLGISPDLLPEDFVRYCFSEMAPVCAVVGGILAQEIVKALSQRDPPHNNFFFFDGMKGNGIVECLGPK
Sequence of SUMO E1/E2 (Q9UBT2 whole entry): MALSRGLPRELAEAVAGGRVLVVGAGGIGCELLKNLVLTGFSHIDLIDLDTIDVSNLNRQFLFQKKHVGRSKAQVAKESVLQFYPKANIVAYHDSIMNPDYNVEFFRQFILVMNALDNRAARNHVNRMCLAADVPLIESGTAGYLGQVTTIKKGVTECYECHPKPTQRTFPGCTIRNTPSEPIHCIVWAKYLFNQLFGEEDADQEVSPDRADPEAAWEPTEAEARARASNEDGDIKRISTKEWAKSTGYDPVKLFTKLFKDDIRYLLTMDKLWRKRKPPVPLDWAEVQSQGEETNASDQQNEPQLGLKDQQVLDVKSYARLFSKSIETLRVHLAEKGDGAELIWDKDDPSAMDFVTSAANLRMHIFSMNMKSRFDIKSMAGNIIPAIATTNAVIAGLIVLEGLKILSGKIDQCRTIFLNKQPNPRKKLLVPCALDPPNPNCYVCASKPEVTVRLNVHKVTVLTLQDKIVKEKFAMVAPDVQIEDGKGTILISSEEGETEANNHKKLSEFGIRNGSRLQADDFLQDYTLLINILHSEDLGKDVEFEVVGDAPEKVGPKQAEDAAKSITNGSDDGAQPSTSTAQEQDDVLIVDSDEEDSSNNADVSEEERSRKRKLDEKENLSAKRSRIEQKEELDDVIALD
Sequence of SUMO E1/E2 (P63279 whole entry): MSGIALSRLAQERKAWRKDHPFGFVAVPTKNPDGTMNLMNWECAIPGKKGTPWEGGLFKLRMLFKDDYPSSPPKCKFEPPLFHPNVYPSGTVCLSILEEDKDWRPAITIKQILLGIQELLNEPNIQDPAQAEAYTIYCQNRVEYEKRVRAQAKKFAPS

Beta-lactamase [13] = target: Beta-lactamase (Salmonella choleraesuis (strain SC-B67), UniProt Q5J463)
Sequence of Beta-lactamase (Salmonella choleraesuis (strain SC-B67), UniProt Q5J463) (Q5J463 whole entry): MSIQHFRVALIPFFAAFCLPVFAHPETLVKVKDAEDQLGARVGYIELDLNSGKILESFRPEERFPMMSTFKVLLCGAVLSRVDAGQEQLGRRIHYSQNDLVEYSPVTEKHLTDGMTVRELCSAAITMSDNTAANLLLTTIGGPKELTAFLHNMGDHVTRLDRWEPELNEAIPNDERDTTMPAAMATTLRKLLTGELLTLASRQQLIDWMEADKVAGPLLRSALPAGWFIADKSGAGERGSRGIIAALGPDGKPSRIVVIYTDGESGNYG

Beta-lactamase [14] = target: Beta-lactamase (Pseudomonas aeruginosa, UniProt Q79MP6);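 further: biochemical dose-response test of metallo-beta-lactamase enzyme inhibition, read out by epi-absorbance; purified recombinant IMP-1 metallo-beta-lactamase with nitrocefin as substrate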
Sequence of Beta-lactamase (Pseudomonas aeruginosa, UniProt Q79MP6) (Q79MP6 whole entry): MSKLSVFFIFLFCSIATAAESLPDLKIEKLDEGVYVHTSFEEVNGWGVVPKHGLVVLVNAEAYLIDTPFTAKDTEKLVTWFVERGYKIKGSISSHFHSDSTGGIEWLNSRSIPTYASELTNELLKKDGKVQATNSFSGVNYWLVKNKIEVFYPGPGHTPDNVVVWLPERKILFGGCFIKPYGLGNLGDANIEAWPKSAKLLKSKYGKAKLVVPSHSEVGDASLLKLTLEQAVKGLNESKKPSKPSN

Keap1/Nrf2 = Keap1/Nrf2 (Homo sapiens, UniProt Q14145); test: Keap1-Nrf2 protein-protein interaction inhibitors, dose response, biochemical, fluorescence polarization, cherry-picked samples (AID 588683)
Sequence of Keap1/Nrf2 (Q16236 whole entry): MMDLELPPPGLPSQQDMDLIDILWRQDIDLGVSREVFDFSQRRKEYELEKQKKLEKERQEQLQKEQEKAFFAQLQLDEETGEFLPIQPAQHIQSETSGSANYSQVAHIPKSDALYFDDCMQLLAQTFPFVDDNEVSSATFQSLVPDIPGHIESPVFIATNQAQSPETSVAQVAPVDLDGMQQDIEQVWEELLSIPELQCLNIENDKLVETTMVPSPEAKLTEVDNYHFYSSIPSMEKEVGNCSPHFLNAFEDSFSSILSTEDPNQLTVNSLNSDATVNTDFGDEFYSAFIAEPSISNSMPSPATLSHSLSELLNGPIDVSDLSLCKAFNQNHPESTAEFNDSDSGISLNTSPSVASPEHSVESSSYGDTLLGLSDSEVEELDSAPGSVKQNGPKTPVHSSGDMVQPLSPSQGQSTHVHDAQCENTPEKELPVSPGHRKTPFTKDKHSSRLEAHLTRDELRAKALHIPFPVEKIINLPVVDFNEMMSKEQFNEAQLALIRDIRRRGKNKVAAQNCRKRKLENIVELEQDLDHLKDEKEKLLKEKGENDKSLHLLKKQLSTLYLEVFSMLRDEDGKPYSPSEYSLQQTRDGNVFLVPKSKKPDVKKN
Sequence of Keap1/Nrf2 (Q14145 whole entry): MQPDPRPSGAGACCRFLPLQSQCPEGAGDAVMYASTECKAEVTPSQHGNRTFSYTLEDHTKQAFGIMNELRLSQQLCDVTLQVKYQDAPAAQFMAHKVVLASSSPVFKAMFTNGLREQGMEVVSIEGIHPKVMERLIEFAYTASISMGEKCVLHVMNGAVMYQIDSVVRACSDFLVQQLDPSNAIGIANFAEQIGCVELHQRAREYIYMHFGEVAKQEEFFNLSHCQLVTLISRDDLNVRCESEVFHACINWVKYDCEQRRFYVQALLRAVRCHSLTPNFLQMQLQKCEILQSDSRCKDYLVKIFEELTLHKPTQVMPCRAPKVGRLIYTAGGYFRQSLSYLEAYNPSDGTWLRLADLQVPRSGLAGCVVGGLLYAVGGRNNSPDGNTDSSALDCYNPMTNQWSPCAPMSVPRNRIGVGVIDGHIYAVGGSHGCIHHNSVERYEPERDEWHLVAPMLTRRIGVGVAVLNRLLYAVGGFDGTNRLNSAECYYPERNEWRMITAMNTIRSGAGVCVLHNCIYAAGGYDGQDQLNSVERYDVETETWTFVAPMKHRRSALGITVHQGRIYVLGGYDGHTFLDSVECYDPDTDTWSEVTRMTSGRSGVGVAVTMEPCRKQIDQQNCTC

BJ [15] = test: cytotoxicity toward BJ-TERT fibroblasts, dose response, cell-based, RAS-independent, luminescence (AID 1933); type: functional; settings: Homo sapiens
HEK293 = test: inhibitors of LMP1-driven NF-kB reporter, dose response, cell-based, HEK293, luciferase, cherry-pick (AID 588343); type: functional; settings: Homo sapiens
[16] = cytotoxicity toward DRD oncogenic fibroblasts, dose response, cell-based, non-viral oncogenic, luminescence (AID 1934); type: functional; settings: Homo sapiens
BJ [17] = test: cytotoxicity toward BJ-TERT-LT-ST fibroblasts, dose response, cell-based, RAS-independent, luminescence (AID 1935); type: functional; settings: Homo sapiens;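 further: BJ fibroblasts immortalized with TERT plus LT and ST oncogenes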
cells [18] = type: functional, cell-based
BJ [19] = test: cells; type: functional, cell-based; settings: Homo sapiens, read-out: EC50
cells [20] = type: functional, cell-based; remark: listed apart in the source

Sequence of Dual specificity protein kinase CLK1 (P49759 whole entry): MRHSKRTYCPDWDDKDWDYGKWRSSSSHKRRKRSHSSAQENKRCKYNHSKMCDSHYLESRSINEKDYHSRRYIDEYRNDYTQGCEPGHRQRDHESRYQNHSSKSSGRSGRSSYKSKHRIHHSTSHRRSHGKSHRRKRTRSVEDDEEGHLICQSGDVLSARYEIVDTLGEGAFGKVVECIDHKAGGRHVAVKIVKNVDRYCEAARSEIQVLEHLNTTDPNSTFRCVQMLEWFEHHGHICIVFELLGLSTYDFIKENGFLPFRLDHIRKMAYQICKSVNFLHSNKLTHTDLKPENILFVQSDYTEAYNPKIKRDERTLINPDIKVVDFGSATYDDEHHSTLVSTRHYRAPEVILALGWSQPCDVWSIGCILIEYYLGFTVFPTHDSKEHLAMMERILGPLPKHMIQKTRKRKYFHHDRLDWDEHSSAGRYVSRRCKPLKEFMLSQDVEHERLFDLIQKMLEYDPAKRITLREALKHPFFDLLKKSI

Question: For `Cc1nc(NC(=O)c2ccccc2)sc1-c1csc(NCc2ccco2)n1`, which AC50 [1] is on record?
Answer: 0.579 µM (active)

Question: What about the AC50 [2] of the same compound?
Answer: 7.53 µM (active)

Question: Which results are given for `O=C(CSC1=NCCS1)Nc1ccnc2ccccc12`?
Answer: AC50 (INS1): 12.1 µM (active); IC50 [3]: 1.69 µM (active); IC50 [4]: 1.34 µM (active)

Question: With `COC(=O)C1=C(C)NC(=O)C1(Nc1ccc(Cl)cn1)C(F)(F)F` (stereo not given) as the compound, how does the IC50 [5] read?
Answer: > 64 µM (inactive)

Question: Which EC50 (Troponin, cardiac muscle) does the source give for `Cc1cc(/C=C2/C(=O)N(C)C(=S)N2C)ccc1N1CCCC1` here?
Answer: 1.55 µM (active)

Question: For `O=C(NC(NC(=S)Nc1ccc(Br)cc1)C(Cl)(Cl)Cl)OCc1ccccc1` (stereo not given), which EC50 (Mu-type opioid receptor [6]) is on record?
Answer: > 32 µM (inactive)

Question: What about the IC50 [7] of the same compound?
Answer: > 10 µM (inactive)

Question: And the EC50 [8]?
Answer: > 32 µM (inactive)

Question: And the IC50 [9]?
Answer: > 32 µM (inactive)

Question: And the IC50 (Mu-type opioid receptor [10])?
Answer: > 32 µM (inactive)

Question: And the IC50 [11]?
Answer: > 32 µM (inactive)

Question: And the EC50 [12]?
Answer: > 32 µM (inactive)

Question: Which EC50 (Mu-type opioid receptor [6]) does the source give for `Cc1ccc(NC(=S)NC(NC(=O)OCc2ccccc2)C(Cl)(Cl)Cl)c(C)c1` (stereo not given) here?
Answer: > 32 µM (inactive)

Question: And the IC50 [7]?
Answer: 8.74 µM (active)

Question: What about the EC50 [8] of the same compound?
Answer: > 32 µM (inactive)

Question: What about the IC50 [9] of the same compound?
Answer: > 32 µM (inactive)

Question: And the IC50 (Mu-type opioid receptor [10])?
Answer: > 32 µM (inactive)

Question: And the IC50 [11]?
Answer: 1.98 µM (active)

Question: And the EC50 [12]?
Answer: > 32 µM (inactive)

Question: For `Cc1ccsc1C=Nc1ccccc1O`, which IC50 (SUMO E1/E2) is on record?
Answer: > 100 µM (inactive)

Question: Which AC50 [1] does the source give for `O=[N+]([O-])c1cc(Nc2nccc(-c3ccc4c(c3)OCO4)n2)cc(C(F)(F)F)c1` here?
Answer: 5.45 µM (active)

Question: For `CN(/N=C/c1ccc(-c2ccc([N+](=O)[O-])cc2)o1)c1ccccc1`, which IC50 (Beta-lactamase [13]) is on record?
Answer: > 59.6 µM (inactive)

Question: What about the EC50 (Troponin, cardiac muscle) of the same compound?
Answer: 1.44 µM (active)

Question: And the IC50 (Beta-lactamase [14])?
Answer: > 59.6 µM (inactive)

Question: With `CCN(CC)c1ccc(/C=N/NC(=O)c2c(Cl)cnn2C)c(O)c1` as the compound, how does the AC50 (INS1) read?
Answer: 0.327 µM (active)

Question: What about the AC50 (Keap1/Nrf2) of the same compound?
Answer: > 52 µM (inactive)

Question: What about the EC50 (BJ [15]) of the same compound?
Answer: 0.97 µM (active)

Question: What about the AC50 (HEK293) of the same compound?
Answer: 4.49 µM (active)

Question: And the EC50 [16]?
Answer: 1.13 µM (active)

Question: What about the EC50 (BJ [17]) of the same compound?
Answer: 3.26 µM (active)

Question: What about the EC50 (cells [18]) of the same compound?
Answer: 6.42 µM (active)

Question: What about the EC50 (BJ [19]) of the same compound?
Answer: 5.01 µM (active)

Question: What about the EC50 (cells [20]) of the same compound?
Answer: 35.9 µM (active)
